Experimental data published in patent publication US9096589B2, “Heteroaromatic phenylimidazole derivatives as PDE10A enzyme inhibitors” (H. Lundbeck A/S, priority 2009, dated 2015).

molecular target: PDE10A (Homo sapiens (Human), UniProt Q9Y233); experiment: PDE10A inhibition assay; type: biochemical
Description: Active PDE10A enzyme is prepared in a number of ways for use in PDE assays (Loughney, K. et al. Gene 1999, 234, 109-117; Fujishige, K. et al. Eur J. Biochem. 1999, 266, 1118-1127 and Soderling, S. et al. Proc. Natl. Acad. Sci. 1999, 96, 7071-7076). PDE10A can be expressed as full-length proteins or as truncated proteins, as long as they express the catalytic domain. PDE10A can be prepared in different cell types, for example insect cells or E. coli. An example of a method to obtain catalytically active PDE10A is as follows: The catalytic domain of human PDE10A (amino acids 440-779 from the sequence with accession number NP 006652) is amplified from total human brain total RNA by standard RT-PCR and is cloned into the BamH1 and Xho1 sites of the pET28a vector (Novagen). Expression in coli is performed according to standard protocols. Briefly, the expression plasmids are transformed into the BL21(DE3) E. coli strain, and 50 mL cultures inoculated with the cells allowed to grow to an OD600 of 0.4-0.6 before protein expression is induced with 0.5 mM IPTG. Following induction, the cells are incubated overnight at room temperature, after which the cells are collected by centrifugation. Cells expressing PDE10A are resuspended in 12 mL (50 mM TRIS-HCl-pH8.0, 1 mM MgCl2 and protease inhibitors). The cells are lysed by sonication, and after all cells are lysed, TritonX100 is added according to Novagen protocols.
A PDE10A assay may for example, be performed as follows: The assay is performed in 60 uL samples containing a fixed amount of the relevant PDE enzyme (sufficient to convert 20-25% of the cyclic nucleotide substrate); a buffer (50 mM HEPES7.6; 10 mM MgCl2; 0.02% Tween20), 0.1 mg/ml BSA, 225 pCi of ^3H-labelled cyclic nucleotide substrate, tritium labeled cAMP to a final concentration of 5 nM and varying amounts of inhibitors. Reactions are initiated by addition of the cyclic nucleotide substrate, and reactions are allowed to proceed for one hr at room temperature before being terminated through mixing with 15 uL 8 mg/mL yttrium silicate SPA beads (Amersham). The beads are allowed to settle for one hr in the dark before the plates are counted in a Wallac 1450 Microbeta counter. The measured signal can be converted to activity relative to an uninhibited control (100%) and IC50 values can be calculated using the Xlfit extension to EXCEL.

PDE10A, sequence (Q9Y233 716-1055): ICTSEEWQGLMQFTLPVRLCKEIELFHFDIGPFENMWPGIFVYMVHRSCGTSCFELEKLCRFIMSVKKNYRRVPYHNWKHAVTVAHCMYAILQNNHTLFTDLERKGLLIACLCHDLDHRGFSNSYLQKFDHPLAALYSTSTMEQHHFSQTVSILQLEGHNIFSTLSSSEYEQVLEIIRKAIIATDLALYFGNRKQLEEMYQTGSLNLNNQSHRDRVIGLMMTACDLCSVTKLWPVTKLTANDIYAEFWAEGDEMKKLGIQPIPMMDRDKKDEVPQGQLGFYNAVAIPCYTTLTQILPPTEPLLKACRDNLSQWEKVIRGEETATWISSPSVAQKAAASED

Row | SMILES | IC50 [nM]
1 | Cc1cccc2nc(CCc3nc(-c4cccs4)cn3C[C@@H](O)CN(C)CC#N)nn12 [[((S)-2-Hydroxy-3-{2-[2-(5-methyl-[1,2,4]triazolo[1,5-a]pyridin-2-yl)-ethyl]-4-thiophen-2-yl-imidazol-1-yl}-propyl)-methyl-amino]-acetonitrile] | 8.8
2 | Cc1cscc1-c1c[nH]c(CCc2nc3cccc(C)n3n2)n1 [5-Methyl-2-{2-[4-(4-methyl-thiophen-3-yl)-1H-imidazol-2-yl]-ethyl}-[1,2,4]triazolo[1,5-a]pyridine] | 45
3 | COc1cccn2nc(CCc3nc(-c4cccnc4)c[nH]3)nc12 [8-Methoxy-2-[2-(4-pyridin-3-yl-1H-imidazol-2-yl)-ethyl]-[1,2,4]triazolo[1,5-a]pyridine] | 270
4 | COCC(O)Cn1cc(-c2cccs2)nc1CCc1nc2c(C)cccn2n1 (stereo not drawn) [1-Methoxy-3-{2-[2-(8-methyl-[1,2,4]triazolo[1,5-a]pyridin-2-yl)-ethyl]-4-thiophen-2-yl-imidazol-1-yl}-propan-2-ol] | 8.4
5 | Cc1ccc(C)n2nc(CCc3nc(-c4cccnc4)cn3C)nc12 [5,8-Dimethyl-2-[2-(1-methyl-4-pyridin-3-yl-1H-imidazol-2-yl)-ethyl]-[1,2,4]triazolo[1,5-a]pyridine] | 5.7
6 | COc1cccn2nc(CCc3nc(-c4cncs4)c[nH]3)nc12 [8-Methoxy-2-[2-(4-thiazol-5-yl-1H-imidazol-2-yl)-ethyl]-[1,2,4]triazolo[1,5-a]pyridine] | 62
7 | COc1cccn2nc(CCc3nc(-c4cccs4)c[nH]3)nc12 [8-Methoxy-2-[2-(4-thiophen-2-yl-1H-imidazol-2-yl)-ethyl]-[1,2,4]triazolo[1,5-a]pyridine] | 28
8 | Cc1cnc(C)n2nc(CCc3nc(-c4nccs4)cn3C)nc12 [,8-Dimethyl-2-[2-(1-methyl-4-thiazol-2-yl-1H-imidazol-2-yl)-ethyl]-[1,2,4]triazolo[1,5-c]pyrimidine] | 12
9 | Cc1cc(C)n2cc(CCc3nc(-c4cccs4)cn3C)nc2n1 [5,7-Dimethyl-2-[2-(1-methyl-4-thiophen-2-yl-1H-imidazol-2-yl)-ethyl]-imidazo[1,2-a]pyrimidine] | 45
10 | COc1cccn2nc(CCc3nc(-c4cccs4)cn3C)nc12 [8-Methoxy-2-[2-(1-methyl-4-thiophen-2-yl-1H-imidazol-2-yl)-ethyl]-[1,2,4]triazolo[1,5-a]pyridine] | 4.5
11 | COc1cccn2nc(CCc3nc(-c4ccsc4)cn3C)nc12 [8-Methoxy-2-[2-(1-methyl-4-thiophen-3-yl-1H-imidazol-2-yl)-ethyl]-[1,2,4]triazolo[1,5-a]pyridine] | 16
12 | Cn1cc(-c2cncs2)nc1/C=C/c1nc2c(F)cccn2n1 [8-Fluoro-2-[(E)-2-(1-methyl-4-thiazol-5-yl-1H-imidazol-2-yl)-vinyl]-[1,2,4]triazolo[1,5-a]pyridine] | 300
13 | Cc1ccc(-c2cn(COCC[Si](C)(C)C)c(/C=C/c3nc4cccc(C)n4n3)n2)s1 [5-Methyl-2-{(E)-2-[4-(5-methyl-thiophen-2-yl)-1-(2-trimethylsilanyl-ethoxymethyl)-1H-imidazol-2-yl]-vinyl}-[1,2,4]triazolo[1,5-a]pyridine] | 210
14 | COc1cccn2nc(CCc3nc(-c4cscc4C)cn3C)nc12 [8-Methoxy-2-{2-[1-methyl-4-(4-methyl-thiophen-3-yl)-1H-imidazol-2-yl]-ethyl}-[1,2,4]triazolo[1,5-a]pyridine] | 37

Continued by falling IC50, values first:

Row | IC50 [nM] | SMILES
15 | 10000 | Cc1cccc2nc(CCc3nc(-c4cccs4)cn3C[C@@H](O)CN(C)CCC#N)nn12 [3-[((S)-2-Hydroxy-3-{2-[2-(5-methyl-[1,2,4]triazolo[1,5-a]pyridin-2-yl)-ethyl]-4-thiophen-2-yl-imidazol-1-yl}-propyl)-methyl-amino]-propionitrile]
16 | 220 | Cc1cc(C)n2cc(/C=C/c3nc(-c4cccnc4)cn3C)nc2n1 [5,7-Dimethyl-2-[(E)-2-(1-methyl-4-pyridin-3-yl-1H-imidazol-2-yl)-vinyl]-imidazo[1,2-a]pyrimidine]
17 | 210 | COCCn1cc(-c2cncs2)nc1CCc1cn2c(C)cc(C)nc2n1 [2-{2-[1-(2-Methoxy-ethyl)-4-thiazol-5-yl-1H-imidazol-2-yl]-ethyl}-5,7-dimethyl-imidazo[1,2-a]pyrimidine]
18 | 180 | Cc1cc(C)n2cc(/C=C/c3nc(-c4cscn4)cn3C)nc2n1 [5,7-Dimethyl-2-[(E)-2-(1-methyl-4-thiazol-4-yl-1H-imidazol-2-yl)-vinyl]-imidazo[1,2-a]pyrimidine]
19 | 140 | Cc1cc(C)n2cc(/C=C/c3nc(-c4ccoc4)cn3C)nc2n1 [2-[(E)-2-(4-Furan-3-yl-1-methyl-1H-imidazol-2-yl)-vinyl]-5,7-dimethyl-imidazo[1,2-a]pyrimidine]
20 | 64 | Cc1cccn2nc(CCc3nc(-c4cccnc4)c[nH]3)nc12 [8-Methyl-2-[2-(4-pyridin-3-yl-1H-imidazol-2-yl)-ethyl]-[1,2,4]triazolo[1,5-a]pyridine]
21 | 47 | Cn1cc(-c2cccs2)nc1CCc1nc2c(F)cccn2n1 [8-Fluoro-2-[2-(1-methyl-4-thiophen-2-yl-1H-imidazol-2-yl)-ethyl]-[1,2,4]triazolo[1,5-a]pyridine]
22 | 44 | Cc1cc(C)n2nc(CCc3nc(-c4cccnc4)cn3C)nc2n1 [5,7-Dimethyl-2-[2-(1-methyl-4-pyridin-3-yl-1H-imidazol-2-yl)-ethyl]-[1,2,4]triazolo[1,5-a]pyrimidine]
23 | 36 | Cc1cc(C)n2cc(CCc3nc(-c4cccs4)cn3CCN3CCOCC3)nc2n1 [5,7-Dimethyl-2-{2-[1-(2-morpholin-4-yl-ethyl)-4-thiophen-2-yl-1H-imidazol-2-yl]-ethyl}-imidazo[1,2-a]pyrimidine]
24 | 34 | Cc1ccc(-c2c[nH]c(CCc3nc4cccc(C)n4n3)n2)o1 [5-Methyl-2-{2-[4-(5-methyl-furan-2-yl)-1H-imidazol-2-yl]-ethyl}-[1,2,4]triazolo[1,5-a]pyridine]
25 | 33 | Cc1cc(C)n2cc(CCc3nc(-c4ccsc4)cn3C)nc2n1 [5,7-Dimethyl-2-[2-(1-methyl-4-thiophen-3-yl-1H-imidazol-2-yl)-ethyl]-imidazo[1,2-a]pyrimidine]
26 | 9.6 | Cc1cccc2nc(CCc3nc(-c4cccnc4)c[nH]3)nn12 [5-Methyl-2-[2-(4-pyridin-3-yl-1H-imidazol-2-yl)-ethyl]-[1,2,4]triazolo[1,5-a]pyridine]
27 | 8.9 | Cc1ncc(C)n2nc(CCc3nc(-c4cccnc4)cn3C)nc12 [5,8-Dimethyl-2-[2-(1-methyl-4-pyridin-3-yl-1H-imidazol-2-yl)-ethyl]-[1,2,4]triazolo[1,5-a]pyrazine]
28 | 8.8 | Cc1cc(C)n2cc(/C=C/c3nc(-c4cccs4)cn3C)nc2n1 [5,7-Dimethyl-2-[(E)-2-(1-methyl-4-thiophen-2-yl-1H-imidazol-2-yl)-vinyl]-imidazo[1,2-a]pyrimidine]
29 | 7.9 | COCC(O)Cn1cc(-c2cccs2)nc1CCc1cn2c(C)cc(C)nc2n1 (stereo not drawn) [1-{2-[2-(5,7-Dimethyl-imidazo[1,2-a]pyrimidin-2-yl)-ethyl]-4-thiophen-2-yl-imidazol-1-yl}-3-methoxy-propan-2-ol]
30 | 6.8 | Cc1ccc(-c2cn(C)c(CCc3nc4c(C)ncc(C)n4n3)n2)o1 [5,8-Dimethyl-2-{2-[1-methyl-4-(5-methyl-furan-2-yl)-1H-imidazol-2-yl]-ethyl}-[1,2,4]triazolo[1,5-a]pyrazine]
